# Laboratory results published in paper PMC12150326 (The Journal of Organic Chemistry, 2025).
# Like-named read-outs stand apart in the source and are kept apart here.
# Tests used:
# bovine brain tubulin = assay: Tubulin polymerization inhibition; type: biochemical; settings: 10 μM tubulin
# Method: Inhibition of tubulin polymerization was determined as described previously. In brief, 10 μM bovine brain tubulin (PurSolutions, LLC (puresoluble.com)) was incubated under conditions strongly promoting polymerization of tubulin (1 M NaGlutamate, 0.1 M Mes (Morpholinoethanesulfonic acid), 1 mM MgCl2, 0.5 mM GTP, pH 6.9), in the absence or presence of 3.3 or 33 μM test compound, incubated for 30 min at 37 °C, then centrifuged at 100,000g for 8 min, and the top 3/4 of the supernatant removed. Protein concentration was measured, and polymerization was determined as pelletable protein lost from the supernatant.
# A549 = assay: Cell-growth inhibition (CellTiter); type: cell-based, human; settings: read-out: Cell Growth Inhibition GI50 ± SE
# Method: (§1) Inhibition of cell growth was determined by using standard procedures. Cell lines were obtained from the NCI anticancer drug screen and maintained in DMEM medium supplemented with 10% fetal bovine serum. Growing cells were exposed to serial dilutions of each compound for 3 days. Cell growth was determined with CellTiter Assay Reagent (Promega), and growth parameters, including inhibition of growth, were measured by using the methods specified by the manufacturer.
# PC3 = assay: Cell-growth inhibition (CellTiter); type: cell-based, human; settings: read-out: Cell Growth Inhibition GI50 ± SE
# Method: as §1
# M14 [1] = assay: Cell-growth inhibition (CellTiter); type: cell-based, human; settings: read-out: Cell Growth Inhibition GI50 ± SE
# Method: as §1
# SK-MEL-5 = type: cell-based, human
# Method: (§2) (aR)-6, (aS)-6, (aS)-iso -6, and (aR)-iso -6 were submitted to the 60 Cell Screen panel and evaluated at 5 doses (100 μM, 10 μM, 1 μM, 0.1 μM, and 0.01 μM). […] The complete report from this submission is available at the publisher’s Web site as a separate Supporting Information file. For COMPARE analysis, TGI levels of response for (aR)-DM-MTC (6) and (aS)-iso-DM-MTC were compared to those of several established tubulin inhibitors previously tested in the NCI-60 screen.
# MOLT-4 = type: cell-based, human
# Method: as §2
# OVCAR-5 = type: cell-based, human
# Method: as §2
# RXF 393 = type: cell-based, human
# Method: as §2
# TK-10 = type: cell-based, human
# Method: as §2
# UACC-62 = type: cell-based, human
# Method: as §2
# HOP-62 = type: cell-based, human
# Method: as §2
# MALME-3M = type: cell-based, human
# Method: as §2
# HL-60(TB) = type: cell-based, human
# Method: as §2
# SK-OV-3 = type: cell-based, human
# Method: as §2
# MDA-MB-231/ATCC = type: cell-based, human
# Method: as §2
# SK-MEL-2 = type: cell-based, human
# Method: as §2
# U251 = type: cell-based, human
# Method: as §2
# SK-MEL-28 = type: cell-based, human
# Method: as §2
# PC-3 = type: cell-based, human
# Method: as §2
# IGROV1 = type: cell-based, human
# Method: as §2
# M14 [2] = type: cell-based, human
# Method: as §2
# NCI 60 cell lines = type: cell-based, human
# Method: as §2
# A498 = type: cell-based, human
# Method: as §2
structure (smiles),measurement,setting,value
"COc1cc(C)c(-c2ccc(OC)c(=O)cc2C)c(OC)c1OC (single isomer, unassigned) [(aR)-6]",Polymerization Inhibition (%) 3.3 μM,bovine brain tubulin; 3.3 μM compound,0%
same,Polymerization Inhibition (%) 33 μM,bovine brain tubulin; 33 μM compound,100%
same,GI50,"A549; A549, 3 days",2100 ± 100 nM
same,GI50,"PC3; PC3, 3 days",1500 ± 100 nM
same,GI50,"M14 [1]; M14, 3 days",1100 ± 200 nM
same,Log10GI50,SK-MEL-5,-5.50 Molar
same,Log10LC50,SK-MEL-5,> -4.00 Molar
same,Log10TGI,SK-MEL-5,-4.42 Molar
same,GI50,SK-MEL-5; Homo sapiens,3160 nM
same,Log10GI50,SK-MEL-5; listed as (aR)-DM-MTC,-5.5 Molar
same,Log10GI50,MOLT-4,-5.58 Molar
same,Log10LC50,MOLT-4,> -4.00 Molar
same,Log10TGI,MOLT-4,> -4.00 Molar
same,GI50,MOLT-4; Homo sapiens,2630 nM
same,Log10GI50,MOLT-4; listed as (aR)-DM-MTC,-5.58 Molar
same,Log10GI50,OVCAR-5,-5.36 Molar
same,Log10LC50,OVCAR-5,> -4.00 Molar
same,Log10TGI,OVCAR-5,> -4.00 Molar
same,GI50,OVCAR-5; Homo sapiens,4370 nM
same,Log10GI50,OVCAR-5; listed as (aR)-DM-MTC,-5.36 Molar
same,Log10GI50,RXF 393,-5.71 Molar
same,Log10LC50,RXF 393,> -4.00 Molar
same,Log10TGI,RXF 393,> -4.00 Molar
same,GI50,RXF 393; Homo sapiens,1950 nM
same,Log10GI50,RXF 393; listed as (aR)-DM-MTC,-5.71 Molar
same,Log10GI50,TK-10,-4.18 Molar
same,Log10LC50,TK-10,> -4.00 Molar
same,Log10TGI,TK-10,> -4.00 Molar
same,GI50,TK-10; Homo sapiens,66100 nM
same,Log10GI50,TK-10; listed as (aR)-DM-MTC,-4.18 Molar
same,Log10GI50,UACC-62,-6.03 Molar
same,Log10LC50,UACC-62,> -4.00 Molar
same,Log10TGI,UACC-62,> -4.00 Molar
same,GI50,UACC-62; Homo sapiens,930 nM
same,Log10GI50,UACC-62; listed as (aR)-DM-MTC,-6.03 Molar
same,Log10GI50,HOP-62,-5.42 Molar
same,Log10LC50,HOP-62,> -4.00 Molar
same,Log10TGI,HOP-62,> -4.00 Molar
same,GI50,HOP-62; Homo sapiens,3800 nM
same,Log10GI50,HOP-62; listed as (aR)-DM-MTC,-5.42 Molar
same,Log10LC50,MALME-3M,> -4.00 Molar
same,Log10TGI,MALME-3M,> -4.00 Molar
same,Log10GI50,HL-60(TB),-6.16 Molar
same,Log10LC50,HL-60(TB),> -4.00 Molar
same,Log10TGI,HL-60(TB),-5.10 Molar
same,GI50,HL-60(TB); Homo sapiens,690 nM
same,Log10GI50,HL-60(TB); listed as (aR)-DM-MTC,-6.16 Molar
same,Log10GI50,SK-OV-3,-5.59 Molar
same,Log10LC50,SK-OV-3,> -4.00 Molar
same,Log10TGI,SK-OV-3,> -4.00 Molar
same,GI50,SK-OV-3; Homo sapiens,2570 nM
same,Log10GI50,SK-OV-3; listed as (aR)-DM-MTC,-5.59 Molar
same,Log10GI50,MDA-MB-231/ATCC,-5.59 Molar
same,Log10LC50,MDA-MB-231/ATCC,> -4.00 Molar
same,Log10TGI,MDA-MB-231/ATCC,> -4.00 Molar
same,GI50,MDA-MB-231/ATCC; Homo sapiens,2570 nM
same,Log10GI50,MDA-MB-231/ATCC; listed as (aR)-DM-MTC,-5.59 Molar
same,Log10GI50,SK-MEL-2,-6.05 Molar
same,Log10LC50,SK-MEL-2,> -4.00 Molar
same,Log10TGI,SK-MEL-2,-5.18 Molar
same,GI50,SK-MEL-2; Homo sapiens,890 nM
same,Log10GI50,SK-MEL-2; listed as (aR)-DM-MTC,-6.05 Molar
same,Log10GI50,U251,-5.53 Molar
same,Log10LC50,U251,> -4.00 Molar
same,Log10TGI,U251,> -4.00 Molar
same,GI50,"U251; Homo sapiens, U-251",2950 nM
same,Log10GI50,U251; listed as (aR)-DM-MTC,-5.53 Molar
same,Log10LC50,SK-MEL-28,> -4.00 Molar
same,Log10TGI,SK-MEL-28,> -4.00 Molar
same,Log10GI50,PC-3,-5.64 Molar
same,Log10LC50,PC-3,> -4.00 Molar
same,Log10TGI,PC-3,> -4.00 Molar
same,GI50,PC-3; Homo sapiens,2290 nM
same,Log10GI50,PC-3; listed as (aR)-DM-MTC,-5.64 Molar
same,Log10GI50,IGROV1,-5.37 Molar
same,Log10LC50,IGROV1,> -4.00 Molar
same,Log10TGI,IGROV1,> -4.00 Molar
same,GI50,"IGROV1; Homo sapiens, IGROV-1",4270 nM
same,Log10GI50,IGROV1; listed as (aR)-DM-MTC,-5.37 Molar
same,Log10GI50,M14 [2],-6.07 Molar
same,Log10LC50,M14 [2],> -4.00 Molar
same,Log10TGI,M14 [2],> -4.00 Molar
same,GI50,M14 [2]; Homo sapiens,850 nM
same,Log10GI50,M14 [2]; listed as (aR)-DM-MTC,-6.07 Molar
same,"fold less potent than colchicine, growth inhibition",NCI 60 cell lines,10 to 50 fold
same,selectivity range,"NCI 60 cell lines; NCI-60, GI50 level",2.39 log units
same,Log10 Range at TGI,"NCI 60 cell lines; NCI-60 cell line selectivity, listed as (aR)-DM-MTC (6)",2.13
same,GI50,NCI 60 cell lines; NCI-60 mean,2400 nM
same,Mean TGI,NCI 60 cell lines; NCI-60 mean total growth inhibition,63000 nM
same,Delta Log10GI50,NCI 60 cell lines; mean graph,0.95
same,Delta Log10LC50,NCI 60 cell lines; mean graph,0.73
same,Delta Log10TGI,NCI 60 cell lines; mean graph,1.93
same,Range Log10GI50,NCI 60 cell lines; mean graph,2.39
same,Range Log10LC50,NCI 60 cell lines; mean graph,0.74
same,Range Log10TGI,NCI 60 cell lines; mean graph,2.13
same,_MID Log10GI50,NCI 60 cell lines; mean graph midpoint,-5.62 Molar
same,_MID Log10LC50,NCI 60 cell lines; mean graph midpoint,-4.01 Molar
same,_MID Log10TGI,NCI 60 cell lines; mean graph midpoint,-4.2 Molar
same,Log10GI50,A498,-6.10 Molar
same,Log10LC50,A498,> -4.00 Molar
same,Log10TGI,A498,-5.34 Molar
same,GI50,A498; Homo sapiens,790 nM
same,Log10GI50,A498; listed as (aR)-DM-MTC,-6.1 Molar
"COc1cc2c(c(OC)c1OC)-c1ccc(OC)c(=O)cc1[C@@H](NC(C)=O)CC2 [Colchicine, (−)-Colchicine]",GI50,"A549; Homo sapiens, A549, 72 h",40 nM
same,GI50,"PC3; Homo sapiens, PC-3, 72 h",20 ± 5 nM
same,GI50,"M14 [1]; Homo sapiens, M14, 72 h",10 ± 1 nM
